Assay results taken from patent publication US10407467B2, “Polymyxin derivatives and their use in combination therapy together with different antibiotics” (priority 2013, dated 2019).
Bridge positions count the residues as written; N and C are the ends. Square brackets hold non-standard residues; d marks the D form. Peptide text beside a SMILES is read from it. ξ: configuration not given here. Thr(3ξ) = CC(O)[C@H](N)C(=O)O; Dab = NCC[C@H](N)C(=O)O; Ahx = NCCCCCC(=O)O

Columns and labels:
Type in all cases: cell-based
[1] = system: Klebsiella pneumoniae; test: MIC, compound in combination with a second agent (broth microdilution); settings: 1:1 (wt:wt) combination with Rifampicin, MIC = total drug concentration
Procedure, shortened: (§1)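 Read-out is the total-drug MIC of a 1:1 weight ratio combination with another agent, e.g. rifampicin. Duplicates within 2-fold gave the lower value; wider spread meant a non-valid assay. Where compounds were tested multiple times, the mode is given.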

[2] = system: Acinetobacter baumannii; test: as above; settings: 1:1 (wt:wt) combination with Rifampicin, MIC = total drug concentration
Procedure, shortened: as §1

[3] = system: Escherichia coli; test: as above; settings: 1:1 (wt:wt) combination with Rifampicin, MIC = total drug concentration
Procedure, shortened: as §1

[4] = system: Pseudomonas aeruginosa; test: as above; settings: 1:1 (wt:wt) combination with Rifampicin, MIC = total drug concentration
Procedure, shortened: as §1

[5] = system: Klebsiella pneumoniae; test: MIC, sole activity (no second agent); settings: in the absence of Rifampicin; strain ATCC 4352
Procedure, shortened: (§2)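 Up to four strains per species were tested in cation-adjusted Mueller-Hinton broth, with inoculum made by direct colony suspension from 18-24 hour Mueller-Hinton agar plates, adjusted to 0.5 McFarland. Duplicates differing by under 2-fold gave the lower value; greater spread voided the run. Values are relative to Polymyxin B.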

[6] = system: Acinetobacter baumannii; test: MIC, sole activity (no second agent); settings: in the absence of Rifampicin
Procedure, shortened: as §2

[7] = system: Escherichia coli; test: MIC, sole activity (no second agent); settings: in the absence of Rifampicin
Procedure, shortened: as §2

[8] = system: Pseudomonas aeruginosa; test: MIC, sole activity (no second agent); settings: in the absence of Rifampicin
Procedure, shortened: as §2

SMILES: CC(C)C[C@@H]1NC(=O)[C@@H](Cc2ccccc2)NC(=O)[C@H](CCN)NC(=O)[C@@H](NC(=O)[C@H](CCN)NC(=O)[C@@H](NC(=O)CCCCCN)C(C)O)CCNC(=O)[C@H](C(C)O)NC(=O)[C@H](CCN)NC(=O)[C@H](CCN)NC1=O (stereo partly shown) [Example 2, 6-Aminohexanoyl polymyxin B nonapeptide] (H-[Ahx][Thr(3ξ)][Dab][Dab][Dab][dF]L[Dab][Dab][Thr(3ξ)]; lactam 4-C)
- MIC K. pneumoniae ATCC-BAA-2146 ([1]; strain ATCC-BAA-2146): 0.5 micrograms/mL
- MIC K. pneumoniae CCUG-59348 ([1]; strain CCUG-59348): 4 micrograms/mL
- MIC K. pneumoniae NCTC 13438 ([1]; strain NCTC 13438): 0.5 micrograms/mL
- MIC A. baumannii ATCC BAA-747 ([2]; strain ATCC BAA-747): ≤0.06 micrograms/mL
- MIC A. baumannii CCUG57249 ([2]; strain CCUG57249): ≤0.06 micrograms/mL
- MIC A. baumannii NCTC 13423 ([2]; strain NCTC 13423): ≤0.06 micrograms/mL
- MIC A. baumannii NCTC 13424 ([2]; strain NCTC 13424): ≤0.06 micrograms/mL
- MIC E. coli ATCC25922 ([3]; strain ATCC25922): 0.125 micrograms/mL
- MIC E. coli NCTC9001 ([3]; strain NCTC9001): 0.5 micrograms/mL
- MIC P. aeruginosa ATCC CRM-9027 ([4]; strain ATCC CRM-9027): 0.25 micrograms/mL
- MIC P. aeruginosa ATCC-47 ([4]; strain ATCC-47): 0.25 micrograms/mL
- MIC P. aeruginosa CCUG 59626 ([4]; strain CCUG 59626): 0.125 micrograms/mL
- MIC K. pneumoniae ATCC 4352 [5]: 0.5 micrograms/mL
- MIC A. baumannii ATCCBAA-747 ([6]; strain ATCCBAA-747): 8 micrograms/mL
- MIC A. baumannii NCTC 13423 ([6]; strain NCTC13423): 0.5 micrograms/mL
- MIC E. coli ATCC25922 ([7]; strain ATCC25922): 2 micrograms/mL
- MIC E. coli NCTC9001 ([7]; strain NCTC9001): 8 micrograms/mL
- MIC P. aeruginosa ATCC 27853 ([8]; strain ATCC27853): 0.5 micrograms/mL
- MIC P. aeruginosa ATCCCRM-9027 ([8]; strain ATCCCRM-9027): 0.25 micrograms/mL
